Source: patent US20160143955A1, “METHOD FOR ISOLATING STROMAL VASCULAR FRACTION” (AGENCY FOR SCIENCE, TECHNOLOGY AND RESEARCH, priority 2013, published 2016)

Test system: adipose-derived stem cells recovered from fat tissue
Experiment: Yield of adipose-derived stem cells (ASCs) after seven days of growth, compared to the collagenase-based method
Format: cell-based
Settings: mince 2.5 mins, incubate with agent at 37° C. for 1 hour; ASCs after seven days of growth vs collagenase-based method
Experimental: Fat tissue (adipose tissue) obtained as lipoaspirate or resected via surgeries are to be obtained prior conducting any of the methods as described herein. To ensure optimum cell viability, immediate isolation of stromal vascular fraction on the day the sample is obtained is recommended. However, the methods as described herein may be performed optimally within 24 hours of sample being obtained. If the methods of the present disclosure cannot be performed immediately upon harvest of sample or within 72 hours of the sample being obtained, the sample was stored at 4° C. In case of enzymatic digestion, the sample is brought to room temperature before proceeding to the isolation procedure.
Upon obtaining the sample as lipoaspirate, to remove debris, the fat tissue was washed with equal amount of buffer (such as phosphate buffered saline (PBS) or Hank's balanced salt solution (HBSS)). For example, for 50 cc or 50 gram volume of lipoaspirate, 50 ml of buffer was used. Washed sample was allowed to settle for a couple of minutes and fluid from the bottom was aspirated to leave fat layer in the top. Washing steps were repeated two times. Collected fat layer was divided into the different methods as described below.
i) Add an equal volume of collagenase solution (ml per gram or cc of fat pads) into one sterile vial and warm to 37° C. Typically, collagenase solution is composed of 2.5 μg/ml collagenase type I, 1% (wt/vol) Bovine Serum Albumin (BSA), 50 μg/ml D-glucose and 200 nM adenosine in buffer;
i) Place washed fat tissue into appropriate tubes. Add equal volume of HBSS solution. Usually 10 ml of fat is used for each variable for replicate treatment/plating. Resected fat is favorable for consistency of cell yield, but manually harvested lipoaspirates are acceptable though additional optimization work described below is recommended;
When homogenizer is to be used, mildly homogenize fat tissue samples at the lowest level setting for 1 min. As would be apparent to the skilled person in the art, different homogenizers would give very different results. […] Optimization for different type of fat tissues must be conducted to obtain optimized parameters and lengths of homogenizing time;
vi) Centrifuge samples at 450 g (about 1800 RPM) for 5 min to pellet dissociated stromal vascular fraction cells. […] Discard the top layer of floating mature adipocytes;
xii) Re-suspend pellet in buffer (PBS or HBSS; 1 ml per 100 cc original tissue). Sample out 10 μl and count cell number in 1:1 mixture of trypan blue by hemocytometer or automated cell counter.
xv) Plate into appropriate dishes and incubate culture plates in 37° C., 5% CO2 incubator. […]
The isolated stromal vascular fraction cells in the methods described above were analyzed for their qualities and yield of adipose-derived stem cells. […]

`CNC[C@H](O)c1ccc(O)c(O)c1` [Epinephrine, epinephrine] was tested. Which “Yield (percentage yield of adipose-derived stem cells recovered)” value did it give?
The value was over 85%.

For `CC(C)NCC(O)c1ccc(O)c(O)c1` (stereo not shown) [Isoprenaline, isoprenaline], which “Yield (percentage yield of adipose-derived stem cells recovered)” value is on record?
The value was over 70%.

How did the “Yield (percentage yield of adipose-derived stem cells recovered)” value turn out when “Sodium deoxycholate [Sodium deoxycholate (SOC)]” was run?
Its value is 0%.

How did the “Yield (percentage yield of adipose-derived stem cells recovered)” value turn out when Triton-X was run?
Its value is 0%.
